Test results: ChEMBL document CHEMBL1201862, “PubChem BioAssay data set” (2004)
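Cells were grown in 96-well plates and exposed to each compound for 48 hours at five concentrations; endpoints were interpolated linearly between bracketing concentrations, or set to the highest concentration if not reached. GI50: concentration for 50% inhibition of growth.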 Active and inactive are the calls of the source. Cut-off read from the data, not from the text of the source: active = GI50 up to about 1.1 µM and inactive = higher.

Tests used:
Experiment in all cases: DTP human tumour cell line panel, 48 h
COLO 205 = tested on: COLO 205
HOP-62 = tested on: HOP-62
IGROV-1 = tested on: IGROV-1
KM12 = tested on: KM12
M14 = tested on: M14
NCI-H226 = tested on: NCI-H226
NCI-H522 = tested on: NCI-H522
OVCAR-5 = tested on: OVCAR-5
OVCAR-8 = tested on: OVCAR-8
SF-268 = tested on: SF-268
SK-MEL-5 = tested on: SK-MEL-5
SNB-19 = tested on: SNB-19
SNB-75 = tested on: SNB-75
SNB-78 = tested on: SNB-78
TK-10 = tested on: TK-10
UACC-257 = tested on: UACC-257
UACC-62 = tested on: UACC-62
UO-31 = tested on: UO-31
DU-145 = tested on: DU-145
MDA-MB-231 = tested on: MDA-MB-231

Structure (SMILES)	GI50 (COLO 205)	GI50 (HOP-62)	GI50 (IGROV-1)	GI50 (KM12)	GI50 (M14)	GI50 (NCI-H226)	GI50 (NCI-H522)	GI50 (OVCAR-5)	GI50 (OVCAR-8)	GI50 (SF-268)	GI50 (SK-MEL-5)	GI50 (SNB-19)	GI50 (SNB-75)	GI50 (SNB-78)	GI50 (TK-10)	GI50 (UACC-257)	GI50 (UACC-62)	GI50 (UO-31)	GI50 (DU-145)	GI50 (MDA-MB-231)
Cc1ccc(NC(=O)C(=O)CC(=O)C2CCOC2=O)c(C)c1 (stereo not drawn)	> 100 µM (inactive)	> 100 µM (inactive)	> 100 µM (inactive)	> 100 µM (inactive)	> 100 µM (inactive)	> 100 µM (inactive)	> 100 µM (inactive)	> 100 µM (inactive)	> 100 µM (inactive)	> 100 µM (inactive)	> 100 µM (inactive)	> 100 µM (inactive)	76.2 µM (inactive)	> 100 µM (inactive)	> 100 µM (inactive)	> 100 µM (inactive)	> 100 µM (inactive)	> 100 µM (inactive)	–	–
NC(=S)N1N=C2c3ccccc3CCC[C@H]2[C@@H]1c1ccccc1	1.67 µM (inactive)	2.2 µM (inactive)	2.36 µM (inactive)	0.693 µM (active)	0.315 µM (active)	2.6 µM (inactive)	0.361 µM (active)	9.57 µM (inactive)	3.2 µM (inactive)	3 µM (inactive)	0.664 µM (active)	1.37 µM (inactive)	0.211 µM (active)	5.77 µM (inactive)	10.3 µM (inactive)	2.21 µM (inactive)	–	1.9 µM (inactive)	1.54 µM (inactive)	0.513 µM (active)
COc1cc(/C=C\c2ccc(Cl)cc2)cc(OC)c1OC	0.443 µM (active)	0.302 µM (active)	1.08 µM (active)	0.173 µM (active)	0.0647 µM (active)	0.24 µM (active)	0.111 µM (active)	26.3 µM (inactive)	0.363 µM (active)	0.843 µM (active)	0.025 µM (active)	0.322 µM (active)	0.188 µM (active)	0.162 µM (active)	38.9 µM (inactive)	0.804 µM (active)	0.0885 µM (active)	0.593 µM (active)	–	–
O=c1oc2c(O)c(O)cc3c(=O)oc4c(O)c(O)cc1c4c23 [ELLAGIC ACID]	> 10 µM (inactive)	> 10 µM (inactive)	45.4 µM (inactive)	> 10 µM (inactive)	18.5 µM (inactive)	23.6 µM (inactive)	24.1 µM (inactive)	> 10 µM (inactive)	18.6 µM (inactive)	56.5 µM (inactive)	> 10 µM (inactive)	18.7 µM (inactive)	32.4 µM (inactive)	> 10 µM (inactive)	75.2 µM (inactive)	> 10 µM (inactive)	40.8 µM (inactive)	39.7 µM (inactive)	–	–
